Biological target: T1, P397Y-FAK (Homo sapiens, UniProt Q05397)
T1 construct: endogenous in cells; host or cells: MDA-231-LNA
Assay: P397Y-FAK Inhibition MSD Platform Cellular Biomarker Assay
Assay type: cell-based
Details: MDA-231-LNA cells; concentration not given
Procedure: 96-well plates (cat#MA6000, Meso Scale Discovery) are coated with 30 μL/well of mouse monoclonal FAK antibody [63D5] (cat#ab72140, Abcam) pre-diluted in PBS to a concentration of 1 mg/mL. The plates are sealed with adhesive film and incubated for 16 hours at 4° C. The antibody is then flicked out of the plates and 150 μL of 3% [w/v] Blocker A (cat#R93AA-1, Meso Scale Discovery) is added. The plates are resealed with adhesive film and incubated at room temperature on a shaker set at medium speed for 2 hours. The plates are then washed three times with a solution containing 50 mM Tris-HCl pH 7.5, 0.15 M NaCl and 0.02% Tween-20, before cell lysate addition described below.
Cells are split 1:2 into T150 cell culture flasks 2 days prior to compound treatment. On the day prior to compound treatment, 200 μL media containing 20,000 cells is seeded into all wells of white, clear-bottom, TC treated, μclear, 96-well microtitre plates (cat#655098, Greiner Bio-One), and the plates are incubated at 37° C. and 5% CO2 for 36 hours. 1 μL/well of compound is then added from dilution series prepared in DMSO. […] 150 μL/well of Read Buffer T+Surfactant (cat#R92TC-1, Meso Scale Discovery) is then added, and pFAK-397 levels quantified using a Meso Scale Discovery SECTOR Imager 6000 instrument. […]

T1 sequence (Q05397 2-1052 limits assumed, stated change not applied): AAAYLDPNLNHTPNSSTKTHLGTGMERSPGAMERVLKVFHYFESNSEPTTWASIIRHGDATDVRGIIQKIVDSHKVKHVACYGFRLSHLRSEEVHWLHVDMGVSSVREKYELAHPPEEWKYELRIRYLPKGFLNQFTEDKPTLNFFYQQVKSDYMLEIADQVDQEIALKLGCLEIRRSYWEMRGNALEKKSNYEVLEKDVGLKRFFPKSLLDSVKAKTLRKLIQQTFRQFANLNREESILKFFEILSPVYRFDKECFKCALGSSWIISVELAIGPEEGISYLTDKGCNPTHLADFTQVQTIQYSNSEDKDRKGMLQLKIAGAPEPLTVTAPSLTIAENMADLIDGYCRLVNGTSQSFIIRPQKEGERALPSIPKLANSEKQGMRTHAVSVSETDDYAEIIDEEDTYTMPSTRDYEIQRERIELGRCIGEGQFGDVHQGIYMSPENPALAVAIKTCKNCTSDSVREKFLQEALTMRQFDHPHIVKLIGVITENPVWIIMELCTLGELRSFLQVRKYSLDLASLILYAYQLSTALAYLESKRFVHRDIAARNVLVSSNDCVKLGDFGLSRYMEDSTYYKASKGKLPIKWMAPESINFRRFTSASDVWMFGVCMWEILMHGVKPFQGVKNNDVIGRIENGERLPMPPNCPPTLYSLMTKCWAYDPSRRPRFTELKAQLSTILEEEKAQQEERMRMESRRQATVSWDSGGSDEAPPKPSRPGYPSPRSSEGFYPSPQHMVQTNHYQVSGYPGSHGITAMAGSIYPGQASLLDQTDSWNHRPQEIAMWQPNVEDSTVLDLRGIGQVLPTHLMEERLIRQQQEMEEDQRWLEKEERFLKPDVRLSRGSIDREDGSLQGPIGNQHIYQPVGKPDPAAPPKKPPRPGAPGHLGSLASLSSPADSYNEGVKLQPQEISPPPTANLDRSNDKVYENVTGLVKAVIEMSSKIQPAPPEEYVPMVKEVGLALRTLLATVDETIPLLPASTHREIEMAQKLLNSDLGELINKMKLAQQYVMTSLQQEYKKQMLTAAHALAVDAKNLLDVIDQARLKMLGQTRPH

- P397Y-FAK inhibition (percent printed in the IC50 column): <50%
SMILES: NC(=O)Cc1ccccc1CCc1nc(Nc2ccc(C3CNC3)cc2)ncc1C(F)(F)F [Compound 20, 2-(2-(2-(2-((4-(azetidin-3-yl)phenyl)amino)-5-(trifluoromethyl)pyrimidin-4-yl)ethyl)phenyl)acetamide]
